Data on eight compounds can be found in patent publication US11078171B2, “Non-ATP/catalytic site p38 mitogen activated protein kinase inhibitors” (University of Maryland, Baltimore, priority 2018, dated 2021).

The conditions of data set [1]: patients with hypercholesterolemia; cited from earlier work.
Another data set has as its target p38α (Homo sapiens, UniProt Q16539). Description: Differential scanning fluorimetry (DSF), binding to p38α.
The target in another data set is ERK2 (Homo sapiens, UniProt P28482). Description: DSF, binding to ERK2. The conditions noted are these: 10-100 μM. The procedure:
Differential Scanning Fluorimetry (DSF): Binding of CADD selected compounds to p38α and […] was tested experimentally using DSF, which evaluates changes in the target protein melting temperature (ΔTm) due to interactions with test compound. SYPRO orange (Invitrogen; diluted 1:1000 in 10 mM HEPES, 150 mM NaCl, pH 7.5) and 1 μM unphosphorylated recombinant human p38α were added to 96-well PCR plates, then 50 nM to 200 μM test compound in 100% DMSO (2% final DMSO concentration) was added, the plates mixed, sealed, centrifuged at 1000 rpm for 1 min, and melting curve performed using an Applied Biosystems real time PCR instrument. The melting point was determined from the first derivative curve. In addition, […], or target-disrupted p38α mutant are used as well.
Test compounds at 10-100 μM were screened for binding to recombinant p38α and ERK2 using DSF (FIG. 1e, Table 1).
A general note: DSF heats the sample and reads unfolding from a dye or from intrinsic fluorescence.

Data set [2] deals with HMVECLs. The experiment in a line: IL-8-directed neutrophil transendothelial migration (TEM) assay. The class given is cell-based, human. On the procedure: Neutrophil transendothelial migration (TEM) assay: Neutrophils were isolated from heparinized venous blood that was collected from healthy volunteers using a protocol approved by the University of Maryland Institutional Review Board and TEM of calcein-labeled neutrophils through HMVECLs was measured.

Data set [3] relates to HMVECLs. Description: LDH release cytotoxicity assay. The class given is cell-based, human. The conditions noted are these: 100 μM for 48 h. The procedure:
(§1) Cytotoxicity of HMVECL exposed to 10-100 μM of each compound is analyzed by MTS assay (Promega), LDH release (Promega), and immunoblotting for activated caspase-3 (Cell Signaling).
Background: LDH leaks from cells whose membrane has failed.

A further data set concerns HMVECL monolayers. The experiment in a line: Endothelial permeability assay (10 kDa dextran flux), TNFα/hyperthermia. The class given is cell-based, human. The procedure: Endothelial permeability assay: Permeability of HMVECL monolayers was assessed by measuring transendothelial flux of 10 kDa dextran conjugated to Cascade blue fluorescent dye for 30 min at 37° C. in Matrigel-coated 3 μm pore size Transwell plates.
The capacity of UM60 and UM101 to stabilize endothelial barriers to macromolecules and neutrophils in TNFα- and hyperthermia-stressed HMVECL monolayers was tested (FIG. 2).

The test system of data set [4] is HMVECLs. Description: MTS cytotoxicity assay. The class given is cell-based, human. As to conditions: 100 μM for 48 h. On the procedure: as §1
Cytotoxicity assay: Cytotoxicity was monitored in parallel HMVEC-L monolayers established in 96-well culture plates using a colorimetric assay that measured reduction of 3-(4,5-dimethylthiazol-2-yl)-5-(3-carboxymethoxyphenyl)-2-(4-sulfophenyl)-2H-tetrazolium (MTS) to a formazan dye (CellTiter 96™; Promega; Madison, Wis.) according to the manufacturer's protocol and quantifying product formation by measuring absorption at 490 nm.
In general terms: Tetrazolium dyes change colour on reduction, which living cells bring about.

Data set [5] has as its system LPS/hyperthermia-induced ALI in mice. The conditions noted are these: for mice died within 24 h: 1000 μg i.p. 30 min prior to 50 μg LPS i.t./hyperthermia.
In the next data set the target is T1, p38β (Homo sapiens, UniProt Q15759).
T1 construct: HA (N); made in house; host or cells: E. coli BL21
T1 sequence (Q15759 whole entry): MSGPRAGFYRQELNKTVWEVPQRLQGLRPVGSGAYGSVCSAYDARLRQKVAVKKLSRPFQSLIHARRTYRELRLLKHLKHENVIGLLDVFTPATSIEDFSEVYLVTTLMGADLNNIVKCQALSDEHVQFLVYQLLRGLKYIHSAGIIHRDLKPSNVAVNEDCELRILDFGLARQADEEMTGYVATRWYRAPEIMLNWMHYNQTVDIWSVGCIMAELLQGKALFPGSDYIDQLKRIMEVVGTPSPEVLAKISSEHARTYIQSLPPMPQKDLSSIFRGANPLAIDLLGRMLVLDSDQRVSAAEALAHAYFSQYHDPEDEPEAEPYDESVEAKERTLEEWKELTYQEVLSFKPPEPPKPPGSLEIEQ
Description: DSF, binding to p38β.

Data set [6] deals with Stat-1 phosphorylation in anisomycin-stimulated HeLa cells. Description: Inhibition of substrate phosphorylation, phospho-Stat-1 immunoblot. Type of data set: cell-based, human. The conditions noted are these: 10 μM, 30 min pretreatment. On the procedure:
(§2) Inhibition of substrate phosphorylation: A functional analysis of UM101 to block p38-dependent phosphorylation of MK2 and Stat-1 was performed in HeLa cells. […] Cell extracts prepared in RIPA buffer containing protease and phosphatase inhibitors were resolved by SDS-PAGE, transferred to PVDF membrane, blocked with 5% nonfat dry milk, probed with primary antibodies against phosphorylated MK2 and Stat-1, and total p38α as a loading control. Bands were detected using secondary antibodies conjugated to infrared fluorophores and infrared fluorescence imaging (Odyssey; LICOR).

Data set [7] deals with MK2 phosphorylation in anisomycin-stimulated HeLa cells. The experiment in a line: Inhibition of substrate phosphorylation, phospho-MK2 immunoblot. The conditions noted are these: 10 μM, 30 min pretreatment. The class given is cell-based, human. The procedure:
as §2

The subject of data set [8] is LPS-induced acute lung injury in mice. Description: Mouse LPS acute lung injury model with UM101 analogues, total protein in lung lavage fluid (FIG. 9, FIG. 10). The class given is in vivo. On the procedure:
FIG. 9 illustrates that UM101 and analogues inhibit acute lung injury in a mouse model. Mice were pretreated i.p. with 1 mg of test compounds and then treated with […] LPS i.t. at 39° C. to induce inflammation. Lung injury was assessed by measuring total protein in the lung lavage fluid.
FIG. 10 illustrates that UM101 and analogues inhibit acute lung injury in a mouse model. All mice received 50 μg LPS i.t. and were kept 24 h at 39° C.; all treatments 1 mg in 0.5 ml DMSO given 6 h post-LPS; mean SM, n=5, *p=0.03 vs DMSO #1; †p=0.16 vs DMSO #2. Lung injury was assessed by measuring total protein in the lung lavage fluid.
First, the compounds can block thrombin-induced cell permeability in human vascular endothelial cells (FIG. 8). […] Mice were pretreated i.p. with 1 mg of test compounds and then treated with […] LPS i.t. at 39° C. to induce inflammation. Lung injury was assessed by measuring total protein in the lung lavage fluid. […] All mice received 50 μg LPS i.t. and were kept 24 h at 39° C.; all treatments 1 mg in 0.5 ml DMSO given 6 h post-LPS; mean±SM, n=5, *p=0.03 vs DMSO #1; †p=0.16 vs DMSO #2. Lung injury was assessed by measuring total protein in the lung lavage fluid.

The conditions of data set [9]: rheumatoid arthritis, two trials; cited from earlier work.
For data set [10] the following is noted: patients with Crohn's disease; cited from earlier work.
The conditions of data set [11]: patients at-risk for ARDS; cited from earlier work.
Setting [12] is: FIG. 10: 50 μg LPS i.t., 24 h at 39° C., 1 mg in 0.5 ml DMSO given 6 h post-LPS.

Chain of p38α (Q16539 whole entry): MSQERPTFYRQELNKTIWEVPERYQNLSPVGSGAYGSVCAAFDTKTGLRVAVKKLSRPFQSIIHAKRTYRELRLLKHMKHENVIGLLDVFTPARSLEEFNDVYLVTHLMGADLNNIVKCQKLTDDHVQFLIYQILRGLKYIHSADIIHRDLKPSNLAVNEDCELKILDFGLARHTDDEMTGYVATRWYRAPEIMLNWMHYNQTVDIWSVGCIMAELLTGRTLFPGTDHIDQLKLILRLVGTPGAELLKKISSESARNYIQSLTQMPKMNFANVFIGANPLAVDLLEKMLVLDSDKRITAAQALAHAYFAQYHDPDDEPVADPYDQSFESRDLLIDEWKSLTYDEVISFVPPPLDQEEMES
Chain of ERK2 (P28482 whole entry, species assumed): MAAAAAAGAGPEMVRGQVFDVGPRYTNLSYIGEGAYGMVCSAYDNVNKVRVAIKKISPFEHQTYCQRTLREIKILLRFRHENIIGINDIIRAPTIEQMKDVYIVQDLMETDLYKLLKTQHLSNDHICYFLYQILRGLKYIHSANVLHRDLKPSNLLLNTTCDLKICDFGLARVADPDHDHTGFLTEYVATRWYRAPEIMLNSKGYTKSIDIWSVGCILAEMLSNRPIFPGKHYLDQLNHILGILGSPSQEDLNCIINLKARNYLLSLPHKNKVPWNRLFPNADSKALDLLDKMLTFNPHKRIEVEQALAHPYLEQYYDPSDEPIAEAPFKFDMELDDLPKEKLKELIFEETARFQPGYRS

In the case of `Cc1c(F)cc(C(=O)NC2CC2)cc1-c1ccc(C(=O)NCC(C)(C)C)cn1` [losmapimod], in [1], the “serum CRP” value is reported as “reduced serum CRP” and the vascular relaxation result is given as “improved vascular relaxation”.
In the case of `O=C1c2cc(S(=O)(=O)NCCO)ccc2-c2ccc(S(=O)(=O)NCCO)cc21` [UM60, N2,N7-di(2-hydroxyethyl)-9-oxo-9H-2,7-fluorenedisulfonamide], the “stabilization of p38α (DSF)” value on p38α (10-100 μM) was “stabilized p38α”. Moreover, the ΔTm at 100 µM on p38α (read-out: increase of the melting temperature of p38α) was approximately 0.7 °C. Also, on ERK2, the “stabilization of ERK2 (DSF)” value is “not ERK2”. Also, the figures for the “reduction of hyperthermia-augmented neutrophil TEM” value in the data set with HMVECLs [2] (10 μM), in the data set on HMVECLs [2] (25 μM) and with HMVECLs [2] (50 μM) were 18%, 89% and “less than baseline levels”, respectively. In addition, in the data set with HMVECLs [3], the “toxicity in LDH release assay” value is listed as “Neither compound was toxic”. In addition, the figures for the “reduction of TNFα/hyperthermia-induced permeability increase” value with HMVECL monolayers (10 μM), in the data set with HMVECL monolayers (25 μM) and in the data set on HMVECL monolayers (100 μM) were “no effect”, “no effect” and 71%, respectively. The “toxicity in MTS assay” value in the data set with HMVECLs [4] is on record as “Neither compound was toxic”. For the same compound, the “mice died within 24 h” value in data set [5] is given as “Four of six”.
For `C[S+]([O-])c1ccc(-c2nc(-c3ccncc3)c(-c3ccc(F)cc3)[nH]2)cc1` (centres unmarked) [SB203580, reference compound], the “stabilization of p38β (DSF)” value at p38β is “stabilized both p38α and p380”. Further, the “reduction of hyperthermia-augmented neutrophil TEM” value in the data set on HMVECLs [2] (10 μM) amounted to 84%. Also, the “reduction of TNFα/hyperthermia-induced permeability increase” value in the data set on HMVECL monolayers (10 μM) is 50%. For the same compound, the “reduction of lavage neutrophil content vs. DMSO-treated controls” value in [5] (1000 μg i.p.) is 46.8%. Further, the “mice died within 24 h” value in data set [5] is on record as “one of six”. In addition, the “anisomycin-stimulated phosphorylation of Stat-1” value in data set [6] is “reduced”. Further, in [7], the “anisomycin-stimulated phosphorylation of MK2” value is on record as “reduced”.
`O=C(Nc1ccc(CN2CCOCC2)cc1)c1ccc(Cl)cc1` [SF-7-009]: the “protein leak into bronchoalveolar lavage fluid (total protein)” value is “reduced protein leak” in [8] (FIG. 9: pretreated i.p. with 1 mg, then 100 mg LPS i.t. at 39° C.) and “reduced protein leak” in data set [8] (setting [12]).
Take `CN(C)c1cccc2c(S(=O)(=O)Nc3ccc(CN4CCOCC4)cc3)cccc12` [SF-7-044]: the “protein leak into bronchoalveolar lavage fluid (total protein)” value in data set [8] (setting [12]) was “reduced protein leak”.
On to `NC(=O)c1ccc(N(C(N)=O)c2c(F)cccc2F)nc1-c1ccc(F)cc1F` [VX-702], for which the ACR20 symptom score entry in data set [9] is “small increases in proportion of treated subjects with ACR20 symptom score vs. placebo”.
In the case of `Cc1ccc(-n2nc(C(C)(C)C)cc2NC(=O)Nc2ccc(OCCN3CCOCC3)c3ccccc23)cc1` [BIRB 796, doramapimod], in [10], the clinical effect result is listed as “no clinical effect” and the “serum CRP levels” value was “transiently reduced”.
Turning to `Cc1cc(F)ccc1-c1nc(NC(CO)CO)nc2c1ccc(=O)n2-c1c(F)cccc1F` [dilmapimod], in [11], the safety entry was “safe at the doses administered” and the “serum C-reactive protein (CRP) levels” value is on record as “modestly reduced”.
